Patent US20250009903A1, “PEPTIDE-BINDING HYBRID LIPOSOME EXOSOME, PEPTIDE-BINDING EXOSOME, COMPOSITION CONTAINING SAME, AND METHOD OF FORMING SAME” (SEKISUI CHEMICAL CO., LTD., priority 2021, published 2025)

Tested on: HepG2 cells
Assay: Influence of peptide-binding MSC-derived / HEK293 cell-derived exosome solutions on cell growth (Experimental Example 5)
Type: cell-based
Experimental: After the sample medium was added, culturing was performed for 48 hours, and using the 8-channel pipette, washing was performed twice with 100 μl of a serum-free DMEM medium (H-Glc). A 10% FBS (exosome-depleted) DMEM (H-Glc) medium was added at 100 μl/well. In addition, after culturing was performed for 48 hours, Premix WST-1 Cell Proliferation Assay System (reagent for cell growth measurement, commercially available from Takara Bio Inc.) was added at 10 μl/well, and color development was performed by performing incubation for 2 hours under […] conditions. The absorbance at 440 nm was measured using “Synergy HTX Multimode Plate Reader” (culture plate absorptiometer, commercially available from Bio Tek Instruments, Inc.). The average absorbance of the control group (no liposome added) was set as 100, the percentage of the absorbance of each well was calculated and used as an index of the degree of cell growth. Here, the Tukey Kramer method was used for the multiple comparison test.
A solution of a peptide having an amino acid sequence shown in SEQ ID NO: 1 was added to a 20 mM borate buffer solution (pH 8.6). In addition, Lipofectamine (registered trademark) (solution for transfection) was dissolved in a serum-free DMEM to prepare a 10% Lipofectamine solution. […]

Sequence: WEAALAEALAEALAEHLAEALAEALEALAA (Amino acid sequence derived from a protein fragment) [peptide]
- % with respect to control group (degree of cell growth) (Table 6A, Adipo-MSC-derived exosome 40 μg/ml, peptide SEQ ID NO: 1, DOX liposome 40 μM, n=6): 147.2%
- % with respect to control group (degree of cell growth) (Table 6B, HEK293 cell-derived exosome 40 μg/ml, peptide SEQ ID No. 1, DOX liposome 40 μM): 141.3%
